Data taken from publication PMC9917201, “Enhanced Antibacterial Activity of Substituted Derivatives of NCR169C Peptide” (International Journal of Molecular Sciences, 2023).
Non-standard residues stand in square brackets, D forms with d. Residues, ends and D or L forms follow the SMILES beside them. ξ: configuration not given here. ξTrp(5-Me) = Cc1ccc2[nH]cc(CC(N)C(=O)O)c2c1; ξTrp(7-aza) = NC(Cc1c[nH]c2ncccc12)C(=O)O

Assays:
Assay type in all cases: cell-based
[1] = system: tested bacteria (ESKAPE pathogens, Listeria monocytogenes, Salmonella enterica); conditions: 3 h, pH 7.4
Source text: (§1) The bacterial strains for the antimicrobial assay were obtained from the ATCC (American Type Culture Collection, Manassas, VA, USA) and NCTC (National Collection of Type Cultures, Salisbury, UK). Gram-negative strains were Pseudomonas aeruginosa (ATCC 27853), Escherichia coli (ATCC 8739, ATCC 35218, and ATCC 25922), Salmonella enterica (ATCC 13076), Klebsiella pneumoniae (NCTC 13440), Acinetobacter baumannii (ATCC 17978) and the Gram-positive strains were Enterococcus faecalis (ATCC 29212), Listeria monocytogenes (ATCC 19111), and Staphylococcus aureus (HNCMO112011 and ATCC 25923).
(§2) Determination of antibacterial activity for the peptides was carried out by utilizing a minimum bactericidal concentration (MBC) bioassay. Synthesized peptides were dissolved in sterile water and used from 25 to 0.125 μM in 2-fold dilution series and incubated with ~10^7 log phase bacteria in Potassium-Phosphate Buffer (PPB, pH: 7.4) for three hours as described earlier. After that, 5 μl of each sample was placed on LB agar and the growth of bacteria was monitored after overnight incubation at 37 °C. The lowest concentration of the antimicrobial agents that completely eliminated viable bacteria was considered the minimal bactericidal concentration (MBC).

[2] = system: Acinetobacter baumannii (ATCC 17978); conditions: ATCC 17978, 3 h, pH 7.4
Source text: as §1, §2

[3] = system: Klebsiella pneumoniae (NCTC 13440); conditions: NCTC 13440, 3 h, pH 7.4
Source text: as §1, §2

[4] = system: Staphylococcus aureus (HNCMO112011); conditions: HNCMO112011, 3 h, pH 7.4
Source text: as §1, §2

[5] = system: Listeria monocytogenes (ATCC 19111); conditions: ATCC 19111, 3 h, pH 7.4
Source text: as §1, §2

[6] = system: Salmonella enterica (ATCC 13076); conditions: ATCC 13076, 3 h, pH 7.4
Source text: as §1, §2

[7] = system: Enterococcus faecalis (ATCC 29212); conditions: ATCC 29212, 3 h, pH 7.4
Source text: as §1, §2

[8] = system: Pseudomonas aeruginosa (ATCC 27853); conditions: ATCC 27853, 3 h, pH 7.4
Source text: as §1, §2

[9] = system: Escherichia coli (ATCC 8739); conditions: ATCC 8739, 3 h, pH 7.4
Source text: as §1, §2

CC[C@H](C)[C@H](NC(=O)[C@H](CCCCN)NC(=O)[C@H](Cc1ccccc1)NC(=O)[C@H](CC(C)C)NC(=O)[C@@H]1CCCN1C(=O)[C@H](CCCCN)NC(=O)[C@H](CCCCN)NC(=O)[C@H](CO)NC(=O)[C@@H](N)CCCCN)C(=O)NC(Cc1c[nH]c2ncccc12)C(=O)N[C@@H](CCCCN)C(=O)N[C@@H](CO)C(=O)N[C@H](C(=O)N[C@@H](CCC(=O)O)C(=O)N[C@@H](CC(N)=O)C(=O)N[C@H](C(=O)N[C@@H](CO)C(=O)N[C@H](C(=O)N[C@@H](CC(C)C)C(=O)N[C@@H](Cc1c[nH]c2ccccc12)C(=O)N[C@@H](Cc1ccc(O)cc1)C(=O)N[C@@H](CCCCN)C(N)=O)C(C)C)C(C)C)C(C)C (stereo partly drawn) [NCR169C17–38C12,17/S-10W^7-Aza II] (H-KSKKPLFKI[ξTrp(7-aza)]KSVENVSVLWYK-NH2; N-terminus assumed)
3.1 µM: MBC against most or all of the tested bacteria [1] | Minimal bactericidal concentration (MBC) S. a. [4] | Minimal bactericidal concentration (MBC) L. m. [5] | Minimal bactericidal concentration (MBC) S. e. [6] | Minimal bactericidal concentration (MBC) E. f. [7] | Minimal bactericidal concentration (MBC) P. a. [8] | Minimal bactericidal concentration (MBC) E. c. [9]
6.3 µM: Minimal bactericidal concentration (MBC) A. b. [2] | Minimal bactericidal concentration (MBC) K. p. [3]

CC[C@H](C)[C@H](NC(=O)[C@H](CCCCN)NC(=O)[C@H](Cc1ccccc1)NC(=O)[C@H](CC(C)C)NC(=O)[C@@H]1CCCN1C(=O)[C@H](CCCCN)NC(=O)[C@H](CCCCN)NC(=O)[C@H](CO)NC(=O)[C@@H](N)CCCCN)C(=O)NC(Cc1c[nH]c2ncccc12)C(=O)N[C@@H](CCCCN)C(=O)N[C@@H](CO)C(=O)N[C@H](C(=O)N[C@@H](CCC(=O)O)C(=O)N[C@@H](CC(N)=O)C(=O)N[C@H](C(=O)N[C@@H](CO)C(=O)N[C@H](C(=O)N[C@@H](CC(C)C)C(=O)N[C@@H](Cc1c[nH]c2ccccc12)C(=O)N[C@@H](Cc1ccc(O)cc1)C(=O)N[C@@H](CCCCN)C(N)=O)C(C)C)C(C)C)C(C)C (stereo partly drawn) [NCR169C17–38C12,17/S-10W^7-Aza I] (H-KSKKPLFKI[ξTrp(7-aza)]KSVENVSVLWYK-NH2; N-terminus assumed)
3.1 µM: MBC against most or all of the tested bacteria [1] | Minimal bactericidal concentration (MBC) A. b. [2] | Minimal bactericidal concentration (MBC) S. a. [4] | Minimal bactericidal concentration (MBC) L. m. [5] | Minimal bactericidal concentration (MBC) S. e. [6] | Minimal bactericidal concentration (MBC) P. a. [8] | Minimal bactericidal concentration (MBC) E. c. [9]
6.3 µM: Minimal bactericidal concentration (MBC) K. p. [3] | Minimal bactericidal concentration (MBC) E. f. [7]

CC[C@H](C)[C@H](NC(=O)[C@H](CCCCN)NC(=O)[C@H](Cc1ccccc1)NC(=O)[C@H](CC(C)C)NC(=O)[C@@H]1CCCN1C(=O)[C@H](CCCCN)NC(=O)[C@H](CCCCN)NC(=O)[C@H](CO)NC(=O)[C@@H](N)CCCCN)C(=O)N[C@@H](Cc1c[nH]c2ccccc12)C(=O)N[C@@H](CCCCN)C(=O)N[C@@H](CO)C(=O)N[C@H](C(=O)N[C@@H](CCC(=O)O)C(=O)N[C@@H](CC(N)=O)C(=O)N[C@H](C(=O)N[C@@H](CO)C(=O)N[C@H](C(=O)N[C@@H](CC(C)C)C(=O)NC(Cc1c[nH]c2ccc(C)cc12)C(=O)N[C@@H](Cc1ccc(O)cc1)C(=O)N[C@@H](CCCCN)C(N)=O)C(C)C)C(C)C)C(C)C (stereo partly drawn) [NCR169C17–38C12,17/S-20W^5-Me I] (H-KSKKPLFKIWKSVENVSVL[ξTrp(5-Me)]YK-NH2; N-terminus assumed)
6.3 to 12.5 µM: MBC against most or all of the tested bacteria [1]
6.3 µM: Minimal bactericidal concentration (MBC) A. b. [2] | Minimal bactericidal concentration (MBC) S. a. [4] | Minimal bactericidal concentration (MBC) L. m. [5] | Minimal bactericidal concentration (MBC) S. e. [6] | Minimal bactericidal concentration (MBC) P. a. [8] | Minimal bactericidal concentration (MBC) E. c. [9]
12.5 µM: Minimal bactericidal concentration (MBC) K. p. [3] | Minimal bactericidal concentration (MBC) E. f. [7]
